According to US10681909B2, “Herbicidal triazoles” (FMC Corporation, priority 2014, dated 2020):

Key:
Assay in all cases: Test E preemergence
Details in all cases: scale 0 to 100
arrowleaf sida = format: in vivo, Sida rhombifolia
From the text: (§1) Seeds of plant species selected from corn (Zea mays), soybean (Glycine max), lambsquarters (Chenopodium album), poinsettia, wild (wild poinsettia, Euphorbia heterophylla), pigweed, palmer (palmer pigweed, Amaranthus palmeri), waterhemp (common waterhemp, Amaranthus rudis), surinam grass (Brachiaria decumbens), crabgrass, large (large crabgrass, Digitaria sanguinalis), crabgrass, Brazilian (Brazilian crabgrass, Digitaria horizontalis), panicum, fall (fall panicum, Panicum dichotomiflorum), foxtail, giant (giant foxtail, Setaria faberii), foxtail, green (green foxtail, Setaria viridis), goosegrass (Eleusine indica), johnsongrass (Sorghum halepense), ragweed (common ragweed, Ambrosia elatior), barnyardgrass (Echinochloa crus-galli), sandbur (southern sandbur, Cenchrus echinatus), arrowleaf sida (Sida rhombifolia), ryegrass, Italian (Italian ryegrass, Lolium multiflorum), dayflower, VA (Virginia dayflower, Commelina virginica), field bindweed (Convolvulus arvensis), cocklebur (common cocklebur, Xanthium strumarium), morningglory (Ipomoea coccinea), nightshade (eastern black nightshade, Solanum ptycanthum), kochia (Kochia scoparia), nutsedge, yellow (yellow nutsedge, Cyperus esculentus), smartweed (ladysthumb smartweed, Polygonum persicaria), velvetleaf (Abutilon theophrasti), horseweed (Conyza canadensis), and beggarticks (hairy beggarticks, Bidens pilosa), were planted into a silt loam soil and treated preemergence with test chemicals formulated in a non-phytotoxic solvent mixture which included a surfactant.
(§2) At the same time, plants from these crop and weed species and also waterhemp_RES1, (ALS & Triazine resistant common waterhemp, Amaranthus rudis), and waterhemp_RES2, (ALS & HPPD resistant common waterhemp, Amaranthus rudis) were planted in pots containing Sunshine Redi-Earth® planting medium comprising spaghnum peat moss, vermiculite, starter nutrients and dolomitic limestone were treated with postemergence applications of test chemicals formulated in the same manner. Plants ranged in height from 2 to 18 cm for postemergence treatments (1- to 4-leaf stage). Treated plants and controls were maintained in a greenhouse for 14 to 21 d, after which time all species were compared to controls and visually evaluated. Plant response ratings, summarized in Table E, are based on a scale of 0 to 100 where 0 is no effect and 100 is complete control. A dash (-) response means no test result.

field bindweed = format: in vivo, Convolvulus arvensis
From the text: as §1, §2

johnsongrass = format: in vivo, Sorghum halepense
From the text: as §1, §2

foxtail, green = format: in vivo, Setaria viridis
From the text: as §1, §2

ryegrass, Italian = format: in vivo, Lolium multiflorum
From the text: as §1, §2

lambsquarters = format: in vivo, Chenopodium album
From the text: as §1, §2

pigweed, palmer = format: in vivo, Amaranthus palmeri
From the text: as §1, §2

panicum, fall = format: in vivo, Panicum dichotomiflorum
From the text: as §1, §2

velvetleaf = format: in vivo, Abutilon theophrasti
From the text: as §1, §2

foxtail, giant = format: in vivo, Setaria faberii
From the text: as §1, §2

poinsettia, wild = format: in vivo, Euphorbia heterophylla
From the text: as §1, §2

sandbur = format: in vivo, Cenchrus echinatus
From the text: as §1, §2

nutsedge, yellow = format: in vivo, Cyperus esculentus
From the text: as §1, §2

nightshade = format: in vivo, Solanum ptycanthum
From the text: as §1, §2

CCCc1nc(-c2ccc(F)cc2)nn1Cc1ccnc(C(F)(F)F)c1 [Compound 6, 4-[[3-(4-fluorophenyl)-5-propyl-1H-1,2,4-triazol-1-yl]methyl]-2-(trifluoromethyl)pyridine]
Plant response rating (arrowleaf sida; 16 g ai/ha): 0
Plant response rating (arrowleaf sida; 31 g ai/ha): 0
Plant response rating (arrowleaf sida; 62 g ai/ha): 10
Plant response rating (arrowleaf sida; 125 g ai/ha): 30
Plant response rating (arrowleaf sida; 250 g ai/ha): 70
Plant response rating (field bindweed; 16 g ai/ha): 10
Plant response rating (field bindweed; 31 g ai/ha): 10
Plant response rating (field bindweed; 62 g ai/ha): 30
Plant response rating (field bindweed; 125 g ai/ha): 50
Plant response rating (field bindweed; 250 g ai/ha): 70
Plant response rating (johnsongrass; 31 g ai/ha): 40
Plant response rating (johnsongrass; 62 g ai/ha): 50
Plant response rating (johnsongrass; 125 g ai/ha): 80
Plant response rating (johnsongrass; 250 g ai/ha): 100
Plant response rating (foxtail, green; 62 g ai/ha): 70
Plant response rating (foxtail, green; 125 g ai/ha): 80
Plant response rating (foxtail, green; 250 g ai/ha): 100
Plant response rating (ryegrass, Italian; 16 g ai/ha): 10
Plant response rating (ryegrass, Italian; 31 g ai/ha): 40
Plant response rating (ryegrass, Italian; 62 g ai/ha): 50
Plant response rating (ryegrass, Italian; 125 g ai/ha): 70
Plant response rating (ryegrass, Italian; 250 g ai/ha): 80
Plant response rating (lambsquarters; 31 g ai/ha): 70
Plant response rating (lambsquarters; 62 g ai/ha): 100
Plant response rating (lambsquarters; 125 g ai/ha): 100
Plant response rating (lambsquarters; 250 g ai/ha): 100
Plant response rating (pigweed, palmer; 16 g ai/ha): 50
Plant response rating (pigweed, palmer; 31 g ai/ha): 75
Plant response rating (pigweed, palmer; 62 g ai/ha): 90
Plant response rating (pigweed, palmer; 125 g ai/ha): 100
Plant response rating (pigweed, palmer; 250 g ai/ha): 100
Plant response rating (panicum, fall; 31 g ai/ha): 20
Plant response rating (panicum, fall; 62 g ai/ha): 35
Plant response rating (panicum, fall; 125 g ai/ha): 95
Plant response rating (panicum, fall; 250 g ai/ha): 100
Plant response rating (velvetleaf; 16 g ai/ha): 0
Plant response rating (velvetleaf; 31 g ai/ha): 30
Plant response rating (velvetleaf; 62 g ai/ha): 40
Plant response rating (velvetleaf; 125 g ai/ha): 50
Plant response rating (velvetleaf; 250 g ai/ha): 70
Plant response rating (foxtail, giant; 16 g ai/ha): 50
Plant response rating (foxtail, giant; 62 g ai/ha): 60
Plant response rating (foxtail, giant; 125 g ai/ha): 95
Plant response rating (foxtail, giant; 250 g ai/ha): 100
Plant response rating (poinsettia, wild; 16 g ai/ha): 15
Plant response rating (poinsettia, wild; 31 g ai/ha): 30
Plant response rating (poinsettia, wild; 62 g ai/ha): 50
Plant response rating (poinsettia, wild; 125 g ai/ha): 50
Plant response rating (poinsettia, wild; 250 g ai/ha): 95
Plant response rating (sandbur; 16 g ai/ha): 10
Plant response rating (sandbur; 31 g ai/ha): 40
Plant response rating (sandbur; 62 g ai/ha): 50
Plant response rating (sandbur; 125 g ai/ha): 70
Plant response rating (sandbur; 250 g ai/ha): 80
Plant response rating (nutsedge, yellow; 16 g ai/ha): 0
Plant response rating (nutsedge, yellow; 31 g ai/ha): 0
Plant response rating (nutsedge, yellow; 62 g ai/ha): 15
Plant response rating (nutsedge, yellow; 125 g ai/ha): 30
Plant response rating (nutsedge, yellow; 250 g ai/ha): 40
Plant response rating (nightshade; 16 g ai/ha): 15
Plant response rating (nightshade; 31 g ai/ha): 70
Plant response rating (nightshade; 62 g ai/ha): 90
Plant response rating (nightshade; 125 g ai/ha): 100
Plant response rating (nightshade; 250 g ai/ha): 100
